# Results from US10093642B2, “Multitarget hedgehog pathway inhibitors and uses thereof” (UNIVERSITA' DEGLI STUDI DI SIENA, priority 2013, dated 2018).
# How the values were obtained:
# [1] = tested on: Hh signaling in mouse cerebellar progenitors; assay: Hh target mRNA in cerebellar progenitors of 6-day old mice after s.c. injection; assay type: in vivo, CD1 mice; conditions: 100 μmol/Kg s.c. for 2 days
# Text: To assess the in vivo activity of Glabrescione B, we first tested its ability to suppress Hh signaling in 6-day old mouse cerebellar progenitors, considered the cell of origin of MB. 6-day old CD1 mice were randomly divided into two groups (n=6) and injected s.c. with solvent only (2-hydroxypropyl-β-cyclodextrin:ethanol, 3:1) or Glabrescione B in solvent (100 μmol/Kg) for 2 days (2-hydroxypropyl-β-cyclodextrin was purchased from Sigma Aldrich, St. Louis, Mo., USA). Cerebella were collected and mRNA levels were determined by qRT-PCR.
# Ptch1+/− MB allografts = assay: Ptch1+/− MB allograft in nude mice; assay type: in vivo, BALB/c nude mice; conditions: 18 days
# Text: FIG. 17. Glabrescione B inhibits Gli1-dependent MB tumor growth in vivo (Ptch1^+/− MB allografts). (A) Change of tumor volume during Glabrescione B (GlaB) or vehicle (CTR) treatment period (days 18). […] (C) qRT-PCR of Gli1 and Ptch1 mRNA expression levels normalized with endogenous control β2-microglobulin and HPRT.
# (§1) Therefore, to verify the Glabrescione B efficacy to inhibit Hh-dependent tumor cell growth in vivo, we turned to an allograft model of MB cells. Spontaneous Medulloblastomas from Ptch1^+/− mice were isolated, minced, pipetted to obtain a single-cell suspension and grafted s.c. at the posterior flank of female BALB/c nude mice (nu/nu) (Charles River Laboratories, Lecco, Italy). Tumors were grown until a median size of ˜100 mm^3. Animals were randomly divided into two groups (n=6) and treated with solvent only (2-hydroxypropyl-β-cyclodextrin:ethanol, 3:1) or Glabrescione B in solvent (75 μmol/Kg) for 18 days (2-hydroxypropyl-β-cyclodextrin was purchased from Sigma Aldrich, St. Louis, Mo., USA). 2×10^6 ASZ001 BCC cells were resuspended in an equal volume of 154CF medium and Matrigel (BD Biosciences, Heidelberg, Germany) and injected s.c. at the posterior flank of female NOD/SCID mice (Charles River Laboratories, Lecco, Italy), as previously described (Eberl et al, 2012). Tumors were grown until a median size of ˜200 mm^3. Animals were randomly divided into two groups (n=6) and treated with solvent only (2-hydroxypropyl-β-cyclodextrin:ethanol, 3:1) or Glabrescione B in solvent (100 μmol/Kg) for 18 days. Tumor volumes change was calculated by the formula length×width×0.5×(length+width) (Lauth et al, 2007).
# Nude mice were grafted with spontaneous primary MB from Ptch1^+/− mice and treated every second day with s.c. injections of Glabrescione B at a concentration of 75 μmol/Kg or solvent only (n=6 for each group).
# MEF-Ptch−/− cells = assay: Gli1 mRNA (quantitative RT-PCR) and protein (western blot) in MEF-Ptch−/− cells; assay type: cell-based, mouse; conditions: different concentrations, 48 h
# Protocol: FIG. 8. […] (A) Gli1 mRNA levels were determined by quantitative RT-PCR, normalizing to HPRT (Hypoxanthine-guanine phosphoribosyl transferase) expression. Error bars indicate SD.
# To analyze the antagonist properties of Glabrescione B under more physiological conditions, the inventors used MEF-Ptch^−/− cells, embryo fibroblasts derived from Ptch^−/− mouse, in which the activation of Hh signaling is consequence of Ptch1 deletion. Since Patched acts as upstream repressor of SMO, inhibition of the Hedgehog pathway from Patched is prevented and the Hedgehog pathway is constitutively activated in this cell lines, which turned out to be a reliable cellular model for studying the effect of Hedgehog inhibitors. […]
# In order to determine whether Glabrescione B regulates cells with a constitutive Hh pathway activation, the MEF-Ptch^−/− cell line (a kind gift by M. Scott, Stanford University, CA, in which the activation of Hh signaling is consequence of Ptch1 deletion, Goodrich, L. V. et al, 1997) was treated with Glabrescione B at different concentrations and the effect on expression of Hh/Gli1 pathway was determined by quantitative RT-PCR and western blot analysis. […] Quantitative PCR (QPCR) analysis of Gli1 mRNA expression was performed on each cDNA sample using the ABI Prism 7900 Sequence Detection System employing Assay-on-Demand Reagents (Life Technologies). […]
# ASZ001 BCC allografts = assay: ASZ001 BCC allograft in NOD/SCID mice; assay type: in vivo; conditions: 100 μmol/Kg, 18 days
# Text: FIG. 18. Glabrescione B inhibits Gli1-dependent BCC tumor growth in vivo. (ASZ001 BCC allografts). (A) Change of tumor volume during Glabrescione B (GlaB) or vehicle (CTR) treatment period (18 days). […] (C) qRT-PCR of Gli1 and Ptch1 mRNA. Shown is the mean±SD of tumor (n=6) for each treatment. *P<0.05 vs CTR.
# as §1, with “Tumors were grown until a median size of ˜200 mm^3. Animals were randomly divided into two groups (n=6) and treated with solvent only (2-hydroxypropyl-β-cyclodextrin:ethanol, 3:1) or Glabrescione B in solvent (100 μmol/Kg) for 18 days.” left out, “2007). […]” for “2007).”
# [2] = NMR monitoring of direct interaction with Zn2+; assay type: binding
# Wnt/Bcatenin = assay: Selectivity: unrelated signal transduction pathway Wnt/Bcatenin; assay type: cell-based
# Jurkat T leukemia cells = assay: Effect on Hh-independent Jurkat cells; assay type: cell-based
smiles,measurement,setting,value
"COc1cc(OC)c2c(=O)c(-c3ccc(OCC=C(C)C)c(OCC=C(C)C)c3)coc2c1 [Glabrescione B, 3-(3′,4′-bis(3-methylbut-2-enyloxy)phenyl)-5,7-dimethoxy-4H-chromen-4-one]",cerebellar levels of Hh target genes (mRNA),[1],reduced significantly
same,tumor mass,Ptch1+/− MB allografts; 75 μmol/Kg s.c. every second day,significantly suppressed tumor mass
same,Gli1 mRNA levels in tumors,Ptch1+/− MB allografts; 75 μmol/Kg s.c.,reduction of Gli1 mRNA levels
same,Ki67 staining in tumors,Ptch1+/− MB allografts; 75 μmol/Kg s.c.,decreased Ki67 staining
same,Gli1 mRNA and protein levels,MEF-Ptch−/− cells,strongly reduced mRNA and protein levels of Gli1
same,Gli1 mRNA levels in tumors,ASZ001 BCC allografts,significant reduction
same,tumor growth,ASZ001 BCC allografts,significant reduction of tumor growth
same,binding to Zn2+ (NMR),[2],not capable of binding to the metal ions
same,inhibition at 30 µM,Wnt/Bcatenin,0%
same,effect on Jurkat cells,Jurkat T leukemia cells,no effect
